# US20200345725A1, “Methods and Compositions for Treating Cancer” (Omeros Corporation, priority 2019, published 2020)
# “And” between values parts separate entries of the source, which are not always exact repeats. Equal values may be shown once. “Also recorded” adds a separate entry of the source.
# Legend:
# Assay type in all cases: cell-based
# GPR174 [1] = target: T1, GPR174 (Homo sapiens, UniProt Q9BXC1); experiment: Cellular redistribution assay (CRA) for GPR174; conditions: multiple values = separate experiments
# Source text: One method for identifying compounds capable of modulating a receptor is using a cellular redistribution assay (“CRA”). Exemplary CRA methods are found in U.S. Pat. No. 7,309,576 issued to O'Dowd et al. and in O'Dowd et al., J. Biomol. Screen. 12:175-85,2007. […] Incorporation of the NLS alters the cellular localization of the GPCR, such that the majority of the NLS-modified receptor is present in the cell interior. An NLS-modified GPCR, when interacting with a functionally active compound, is mostly localized on the cell surface. Thus, it becomes possible to identify receptor modulators without knowledge of the endogenous ligand or a surrogate ligand.
# The inventors have identified a number of compounds that inhibit GPR174 using a CRA assay similar to that described in U.S. Pat. No. 7,309,576 and in O'Dowd et al., J. Biomol. Screen. 12:175-85, 2007. These compounds are described in detail below.
# The inventors used a CRA similar to that described in U.S. Pat. No. 7,309,576 and O'Dowd et al., J. Biomol. Screen. 12:175-85, 2007 to identify compounds that are capable of interacting with GPR174 using a library of approximately 370,000 chemical entities. Briefly described, the CRA assay described in U.S. Pat. No. 7,309,576 involves artificially inserting a NLS into the dopamine D1 receptor (DRD1), which allows the receptor to traffic from the cell membrane to the cell interior, and that the binding of antagonists to the receptor retained the receptor at the cell surface, while removal of the ligand allowed the receptor to continue to internalize from the cell surface. Both antagonists and agonists that selectively bound the receptor retained the receptor on the plasma membrane. GPR174 constructs were generated for use in a CRA-based compound screening assay. From this screen, the inventors initially identified compounds of formula I-VI, as described herein and included in Table 1.
# Target sequence in this assay (Q9BXC1 1-292 limits assumed): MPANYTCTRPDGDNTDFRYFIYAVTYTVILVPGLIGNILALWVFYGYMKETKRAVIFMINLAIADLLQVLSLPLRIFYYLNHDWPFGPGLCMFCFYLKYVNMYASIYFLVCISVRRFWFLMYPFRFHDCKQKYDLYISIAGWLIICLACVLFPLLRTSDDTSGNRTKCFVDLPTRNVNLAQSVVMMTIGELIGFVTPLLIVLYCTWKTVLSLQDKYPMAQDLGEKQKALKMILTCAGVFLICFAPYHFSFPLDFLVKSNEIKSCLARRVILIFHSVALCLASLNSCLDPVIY
# GPR174 [2] = target: T1, GPR174; experiment: CRE-Luc reporter Gs signaling assay with GPR174; parameters: host or cells: HEK293 or CHO cell lines (ATCC); conditions: for Fold decrease in Gs signaling activity / EC50 / Human GPR174 CRE Activity: nature of the compound (IA, antagonist, NM): pCRE-Luc reporter; for EC50: multiple values = separate experiments; for Gs pathway in the presence of GPR174 (CRE-Luc reporter): increasing concentrations of compound
# Target sequence in this assay (Q9BXC1 whole entry): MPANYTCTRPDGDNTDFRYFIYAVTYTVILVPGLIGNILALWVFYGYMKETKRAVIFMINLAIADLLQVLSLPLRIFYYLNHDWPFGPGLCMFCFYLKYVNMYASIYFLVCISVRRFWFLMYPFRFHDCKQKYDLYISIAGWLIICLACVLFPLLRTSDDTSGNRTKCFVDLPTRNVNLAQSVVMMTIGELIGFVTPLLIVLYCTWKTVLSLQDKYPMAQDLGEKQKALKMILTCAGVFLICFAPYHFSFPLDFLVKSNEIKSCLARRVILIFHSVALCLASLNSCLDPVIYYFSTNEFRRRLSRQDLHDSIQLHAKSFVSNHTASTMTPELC
# ADBR2 = target: T2, ADBR2 (Homo sapiens, UniProt P07550); experiment: CRE-Luc reporter assay with control receptor ADBR2
# T2 construct: host or cells: HEK293 or CHO cell lines (ATCC)
# T2 sequence (P07550 whole entry): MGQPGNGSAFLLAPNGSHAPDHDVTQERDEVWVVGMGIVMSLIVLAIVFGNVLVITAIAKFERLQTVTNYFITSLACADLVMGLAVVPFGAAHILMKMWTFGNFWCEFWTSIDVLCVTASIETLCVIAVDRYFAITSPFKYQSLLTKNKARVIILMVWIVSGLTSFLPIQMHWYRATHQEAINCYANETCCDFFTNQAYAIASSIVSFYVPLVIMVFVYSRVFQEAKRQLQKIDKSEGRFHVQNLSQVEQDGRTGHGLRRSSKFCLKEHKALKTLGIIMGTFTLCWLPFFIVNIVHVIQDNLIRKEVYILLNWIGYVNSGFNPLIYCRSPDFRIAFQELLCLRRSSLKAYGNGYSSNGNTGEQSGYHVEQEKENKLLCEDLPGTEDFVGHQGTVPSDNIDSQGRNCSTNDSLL
# Procedure: The DNA/lipofectamine 2000 mix (3000 μL) was incubated at room temperature for 30 minutes and then added into a 10 cm culture dish (Corning, NY) containing 70-90% confluent cultured cells, (HEK293 or CHO cell lines (ATCC, VA)), in 15 mL of media. […] The cells were further incubated at 37° C. for various times. The media were removed and the cells lysed.
# Compounds were tested in the reporter system with increasing concentrations of GPR174-interacting compounds.
# The DNA/lipofectamine 2000 mix (3000 μL) was incubated at room temperature for 30 minutes and then added into a 10 cm culture dish (Corning, NY) containing 70-90% confluent cultured cells, typically HEK293 or CHO cell lines (ATCC, VA), in 15 mL of media. […] Media (26 mL) were added to the detached cells and 120 μL of transfected cells were transferred to each well on a 96-well plate. Increasing concentration of each compound in DMSO (1.2 μl) was added to the cells after plating into the 96-well plate. The cells were further incubated at 37° C. for various times. The media were removed, and the cells lysed.
# ADBR2 is a GPCR, like GPR174, that activates the Gs signaling pathway.
SMILES,EC50 (GPR174 [1]),Fold decrease in Gs signaling activity (GPR174 [2]),EC50 (GPR174 [2]),Gs pathway in the presence of ADBR2 (CRE-Luc reporter) (ADBR2),Gs pathway in the presence of GPR174 (CRE-Luc reporter) (GPR174 [2]),"Human GPR174 CRE Activity: nature of the compound (IA, antagonist, NM) (GPR174 [2])"
CCCC(=O)N1CCN(c2cc(N3CCCCC3)c(F)cc2[N+](=O)[O-])CC1 [compound 5],> 1200 nM,2.4 fold,900 nM,–,–,–
CCOC(=O)N1CCN(c2cc(N3CCCCC3)c(F)cc2[N+](=O)[O-])CC1 [compound 7],> 700 nM,2.4 fold,300 nM and 500 nM,did not inhibit,inhibited,–
CCC(=O)N1CCN(c2cc(N3CCCCC3)c(F)cc2[N+](=O)[O-])CC1 [compound 9],> 2000 nM,2.1 fold,700 nM and 500 nM,–,–,–
CC(=O)N1CCN(c2cc(N3CCC(C)CC3)c(F)cc2[N+](=O)[O-])CC1 [compound 13],> 2000 nM,2.2 fold,800 nM and 1200 nM,–,–,–
Cc1ccc(-c2nnc(Nc3ccccc3)c3ccccc23)cc1S(N)(=O)=O [compound 19],–,–,–,did not modulate,did not modulate,Antagonist or allosteric modulator
Cc1cc(Cc2ccc(NC(=O)c3cccs3)c(C)c2)ccc1NC(=O)c1cccs1 [compound 21],–,–,–,did not modulate,did not modulate,GPR174 antagonist or allosteric modulator
COc1ccc(C2C3=C(CCCC3=O)NC3=C2C(=O)c2ccccc23)cc1 (stereo not drawn) [compound 22],–,10.2 fold,1000 nM and 1500 nM,did not inhibit,inhibited,–
CCOc1ccc(C2C3=C(CCCC3=O)NC3=C2C(=O)c2ccccc23)cc1 (stereo not drawn) [compound 23],–,14.1 fold,400 nM and 900 nM and 1200 nM and 1000 nM,did not inhibit,inhibited,–
CCCCOc1ccc(C2C3=C(CCCC3=O)NC3=C2C(=O)c2ccccc23)cc1 (stereo not drawn) [compound 31],–,8.9 fold,1200 nM,did not inhibit,inhibited,–
O=C1CCCC2=C1C(c1ccc(OCCO)cc1)C1=C(N2)c2ccccc2C1=O (stereo not drawn) [compound 33],–,9.2 fold,4400 nM,did not inhibit,inhibited,–
O=C1CCCC2=C1C(c1ccc3c(c1)OCCO3)C1=C(N2)c2ccccc2C1=O (stereo not drawn) [compound 36],–,8.3 fold,2600 nM,did not inhibit,inhibited,–
O=C1CCCC2=C1C(c1ccncc1)C1=C(N2)c2ccccc2C1=O (stereo not drawn) [compound 42],–,4.3 fold,6600 nM,did not inhibit,inhibited,–
CCc1ccc(C2C3=C(CCCC3=O)NC3=C2C(=O)c2ccccc23)cn1 (stereo not drawn) [compound 54],–,7 fold,2000 nM,–,–,–
CCOc1ccc(C2C3=C(CCCC3=O)NC3=C2C(=O)c2ccccc23)cn1 (stereo not drawn) [compound 55],–,7 fold,600 nM,–,–,–
C=C(C)COc1ccc(NC(=O)Nc2ccccc2)cc1 [compound 56],–,3 fold,500 nM,–,–,inverse agonist
O=C(N/N=C/c1cc(Cl)ccc1O)c1ccncc1 [compound 57],–,–,–,–,–,GPR174 antagonists or allosteric modulators; also recorded: Antagonist or allosteric modulator
Cc1cc(C(=O)N/N=C/c2cc(Br)ccc2O)c(C)o1 [compound 58],–,–,–,–,–,GPR174 antagonists or allosteric modulators; also recorded: Antagonist or allosteric modulator
S=C(NCc1ccco1)Nc1ccc(I)cc1 [compound 59],–,–,–,–,–,NM (“NM” refers to “non-modulator.”)
